pEC50, pIC50, pKi: −log10 of the molar value. Like-named read-outs stand apart in the source and are kept apart here.
Tests used:
[1] = target: T1, human mineralocorticoid receptor (MR) (Homo sapiens, UniProt P08235); assay: Co-transfection assay, MR antagonist activity, CV-1 cells (pRShMR); type: cell-based; conditions: Table 4; antagonist mode; % maximal inhibition
T1 construct: expressed in transfected cells; host or cells: CV-1 cells, transient transfection
T1 sequence (P08235 1-984): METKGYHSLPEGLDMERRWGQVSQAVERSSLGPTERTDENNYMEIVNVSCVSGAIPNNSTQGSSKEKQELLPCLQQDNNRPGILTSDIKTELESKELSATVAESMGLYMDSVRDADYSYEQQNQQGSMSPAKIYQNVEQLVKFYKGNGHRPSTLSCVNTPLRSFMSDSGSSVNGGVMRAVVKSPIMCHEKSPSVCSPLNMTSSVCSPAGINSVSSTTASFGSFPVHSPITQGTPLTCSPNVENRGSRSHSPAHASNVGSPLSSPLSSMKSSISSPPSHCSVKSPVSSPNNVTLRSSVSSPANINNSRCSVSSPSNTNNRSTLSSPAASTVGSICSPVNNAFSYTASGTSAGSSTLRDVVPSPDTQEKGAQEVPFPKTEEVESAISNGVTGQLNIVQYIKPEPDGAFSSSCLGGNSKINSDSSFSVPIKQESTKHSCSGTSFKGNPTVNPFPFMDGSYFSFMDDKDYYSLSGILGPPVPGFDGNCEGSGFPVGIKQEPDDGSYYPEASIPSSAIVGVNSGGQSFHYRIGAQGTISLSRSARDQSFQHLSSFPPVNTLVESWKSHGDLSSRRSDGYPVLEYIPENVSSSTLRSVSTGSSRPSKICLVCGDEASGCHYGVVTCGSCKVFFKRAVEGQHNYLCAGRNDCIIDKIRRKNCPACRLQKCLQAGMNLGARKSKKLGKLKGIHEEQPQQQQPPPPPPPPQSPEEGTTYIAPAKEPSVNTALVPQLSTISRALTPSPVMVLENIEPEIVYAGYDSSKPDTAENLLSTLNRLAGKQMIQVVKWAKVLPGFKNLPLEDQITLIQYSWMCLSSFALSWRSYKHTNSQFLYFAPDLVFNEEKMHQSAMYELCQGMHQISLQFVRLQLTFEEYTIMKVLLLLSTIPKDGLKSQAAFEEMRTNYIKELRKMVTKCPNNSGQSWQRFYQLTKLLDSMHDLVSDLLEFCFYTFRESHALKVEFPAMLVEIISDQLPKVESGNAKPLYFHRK

[2] = target: T2, human glucocorticoid receptor (GR) (Homo sapiens, UniProt P04150); assay: Co-transfection assay, GR antagonist activity, CV-1 cells (pRShGR); type: cell-based; conditions: for GR Antagonist CV-1 Cells Efficacy (%): Table 4, antagonist mode, % maximal inhibition
T2 construct: expressed in transfected cells; host or cells: CV-1 cells, transient transfection
T2 sequence (P04150 1-777): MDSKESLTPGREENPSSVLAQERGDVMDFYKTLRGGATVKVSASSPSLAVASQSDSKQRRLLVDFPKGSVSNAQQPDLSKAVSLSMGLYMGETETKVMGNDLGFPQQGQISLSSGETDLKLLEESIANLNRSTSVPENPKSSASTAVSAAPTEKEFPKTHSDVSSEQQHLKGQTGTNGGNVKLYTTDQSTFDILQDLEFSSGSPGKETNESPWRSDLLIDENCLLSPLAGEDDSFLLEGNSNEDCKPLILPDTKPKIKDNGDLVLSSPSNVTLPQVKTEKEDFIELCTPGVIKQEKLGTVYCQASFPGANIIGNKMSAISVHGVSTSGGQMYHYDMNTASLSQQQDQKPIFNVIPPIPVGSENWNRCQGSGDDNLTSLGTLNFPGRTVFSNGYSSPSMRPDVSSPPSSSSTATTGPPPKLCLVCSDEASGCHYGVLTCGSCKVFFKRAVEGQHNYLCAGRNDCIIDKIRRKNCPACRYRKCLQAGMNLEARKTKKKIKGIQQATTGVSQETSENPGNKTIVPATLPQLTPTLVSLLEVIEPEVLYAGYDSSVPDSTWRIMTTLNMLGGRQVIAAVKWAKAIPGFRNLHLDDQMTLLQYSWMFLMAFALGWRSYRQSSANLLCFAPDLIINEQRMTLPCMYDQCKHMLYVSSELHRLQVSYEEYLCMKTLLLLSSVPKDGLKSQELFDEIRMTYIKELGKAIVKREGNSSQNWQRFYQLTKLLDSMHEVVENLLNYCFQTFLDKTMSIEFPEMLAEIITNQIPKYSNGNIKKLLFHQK

PR, AR, ER, GR and MR = assay: cis-trans or co-transfection assay, steroid receptor panel (cross-reactivity); type: cell-based, human; conditions: as seen in the Tables
human PR-B = target: T3, human PR-B (Homo sapiens, UniProt P06401); assay: Co-transfection assay, PR agonist and antagonist activity, CV-1 cells; type: cell-based; conditions: for pIC50: read-out: PR Antagonist CV-1 Cells Potency;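 on all read-outs here: luciferase reporter driven by a hormone response element, co-transfected with human PR-B into CV-1 monkey kidney cells, agonists raise and antagonists lower the reporter signal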
T3 construct: expressed in transfected cells; host or cells: CV-1 cells (African green monkey kidney fibroblasts), transient transfection
T3 sequence (P06401 1-933): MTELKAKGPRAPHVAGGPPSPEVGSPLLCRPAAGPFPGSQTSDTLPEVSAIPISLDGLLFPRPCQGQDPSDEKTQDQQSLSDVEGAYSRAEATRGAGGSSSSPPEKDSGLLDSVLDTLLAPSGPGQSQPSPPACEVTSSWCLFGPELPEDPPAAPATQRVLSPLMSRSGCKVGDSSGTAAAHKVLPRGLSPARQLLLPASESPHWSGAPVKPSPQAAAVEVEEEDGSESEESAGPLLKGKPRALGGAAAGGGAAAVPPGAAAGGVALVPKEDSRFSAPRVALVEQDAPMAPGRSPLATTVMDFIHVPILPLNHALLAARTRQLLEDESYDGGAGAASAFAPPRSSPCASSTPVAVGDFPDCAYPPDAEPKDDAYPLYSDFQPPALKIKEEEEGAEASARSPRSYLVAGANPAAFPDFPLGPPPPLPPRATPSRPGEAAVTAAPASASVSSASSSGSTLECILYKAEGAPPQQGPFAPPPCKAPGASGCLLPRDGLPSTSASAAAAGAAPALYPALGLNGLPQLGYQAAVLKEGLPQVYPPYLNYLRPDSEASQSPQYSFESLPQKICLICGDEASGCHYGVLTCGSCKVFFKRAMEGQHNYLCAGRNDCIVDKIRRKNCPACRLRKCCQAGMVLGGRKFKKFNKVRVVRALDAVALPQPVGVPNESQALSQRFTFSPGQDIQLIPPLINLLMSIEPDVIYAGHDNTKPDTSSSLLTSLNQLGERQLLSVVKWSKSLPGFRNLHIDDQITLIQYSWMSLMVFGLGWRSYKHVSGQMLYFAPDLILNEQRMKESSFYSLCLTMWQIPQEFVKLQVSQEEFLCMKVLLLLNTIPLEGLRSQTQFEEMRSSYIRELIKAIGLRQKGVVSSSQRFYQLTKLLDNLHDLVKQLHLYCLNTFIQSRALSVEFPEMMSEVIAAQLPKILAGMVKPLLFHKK

[3] = target: T4, human progesterone receptor A form (PR-A) (Homo sapiens, UniProt P06401); assay: PR binding assay, baculovirus extract, [3H] progesterone
T4 sequence (P06401 1-769 isoform P06401-2): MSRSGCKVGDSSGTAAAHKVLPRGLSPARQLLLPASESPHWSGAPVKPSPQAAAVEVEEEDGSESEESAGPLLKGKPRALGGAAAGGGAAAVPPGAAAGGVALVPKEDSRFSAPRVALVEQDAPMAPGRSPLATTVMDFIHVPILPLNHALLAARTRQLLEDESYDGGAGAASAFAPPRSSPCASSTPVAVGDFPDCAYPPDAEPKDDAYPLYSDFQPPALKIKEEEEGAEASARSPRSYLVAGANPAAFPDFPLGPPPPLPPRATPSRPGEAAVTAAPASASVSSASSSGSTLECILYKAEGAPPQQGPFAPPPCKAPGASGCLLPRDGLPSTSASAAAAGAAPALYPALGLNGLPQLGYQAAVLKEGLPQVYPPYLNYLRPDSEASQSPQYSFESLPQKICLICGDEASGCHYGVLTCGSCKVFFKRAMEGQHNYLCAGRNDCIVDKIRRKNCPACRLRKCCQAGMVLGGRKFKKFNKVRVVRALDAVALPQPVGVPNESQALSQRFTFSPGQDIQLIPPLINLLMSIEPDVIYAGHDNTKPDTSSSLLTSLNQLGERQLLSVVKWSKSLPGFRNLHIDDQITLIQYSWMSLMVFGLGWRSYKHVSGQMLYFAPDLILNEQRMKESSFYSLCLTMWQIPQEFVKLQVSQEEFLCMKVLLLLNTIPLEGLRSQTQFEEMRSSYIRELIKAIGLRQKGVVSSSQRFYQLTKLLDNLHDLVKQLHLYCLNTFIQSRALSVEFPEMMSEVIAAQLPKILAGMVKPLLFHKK

[4] = test system: uterine wet weight in ovariectomized Sprague-Dawely rats; assay: Uterine wet weight assay (PR agonists); type: in vivo, rat; conditions: for effect on uterine wet weight when co-administered with estrone: MPA and Compound 210 at 0.3, 1.0 and 3.0 mg/rat, Compound 163 at 3 mg/rat
Text: The effectiveness of selected compounds of the present invention as PR agonists was investigated in the well recognized uterine wet weight assay, as described in G. J. Marcus, “Mitosis in the rat uterus during the estrous cycle, early pregnancy and early pseudopregnancy”, 10 Biol. Reprod., 447 (1974), S. […] J. Obstet. […] I. Dorfman, “Estrogens” (Ch. 2) and “Antiestrogens” (Ch. 3). in Methods in Hormone Research, ed. R. I. Dorfman, Academic Press, New York, New York, pp101-130 (1969), the disclosures of which are herein incorporated by reference. Four to five week old, ovariectomized, Sprague-Dawely rats (Harlan-Sprague-Dawely, Indianapolis, Ind.) were obtained 1 week after surgery and allowed to acclimate for an additional week after shipment. […] Louis, Mo.) a synthetic estrogen agonist, were fully dissolved in purified sesame oil (Croda, Parsippany, N.J.). […] Additional control groups of rats were administered estrone or vehicle (i.e. sesame oil) alone. Animals were sacrificed on the fourth day of the experiment.

[5] = agonist mode, EC50, read-out: PR Agonist CV-1 Cells Potency
[6] = 0.3 mg/rat oral once a day for three days + E1 10 μg
[7] = 1.0 mg/rat oral once a day for three days + E1 10 μg
[8] = 3.0 mg/rat oral once a day for three days + E1 10 μg

SMILES: CC#C[C@]1(O)CC[C@H]2[C@@H]3CCC4=CC(=O)CCC4=C3[C@@H](c3ccc(N(C)C)cc3)C[C@@]21C [RU486, (11 beta, 17 beta)-11-[4-(dimethylamino)phenyl]-17-hydroxy-17-(1-propynyl)estra-4,9-dien-3-one, reference compound]
- MR Antagonist CV-1 Cells Efficacy (%) [1]: 77%
- GR Antagonist CV-1 Cells Efficacy (%) [2]: 100%

SMILES: CC1=CC(C)(C)Nc2ccc3c(c21)C(c1cccc(F)c1)Oc1ccccc1-3 (racemic) [Compound 191, (R/S)-5-(3-Fluorophenyl)-1,2-dihydro-2,2,4-trimethyl-5H-chromeno[3,4-f]quinoline]
- steroid receptor selectivity profile (PR, AR, ER, GR and MR): highly selective PR agonists
- pEC50 (human PR-B; [5]): 8.05
- pIC50 (human PR-B): 6.82
- pKi ([3]; read-out: PR Binding Ki): 9.00

SMILES: CC(=O)O[C@]1(C(C)=O)CC[C@H]2[C@@H]3C[C@H](C)C4=CC(=O)CC[C@]4(C)[C@H]3CC[C@@]21C [MPA, medroxyprogesterone acetate, reference compound]
- Mean Uterine Wet Weight [4, 6]: 140 mg
- Mean Uterine Wet Weight [4, 7]: 130 mg
- Mean Uterine Wet Weight [4, 8]: 130 mg
- effect on uterine wet weight when co-administered with estrone [4]: significantly decreased

SMILES: CC1=CC(C)(C)Nc2cc3c(cc21)-c1ccc(F)cc1C3 [Compound 124, 8-Fluoro-1,2-dihydro-2,2,4-trimethylindeno[1,2-g]quinoline]
- steroid receptor selectivity profile (PR, AR, ER, GR and MR): highly selective PR antagonists
- pEC50 (human PR-B): 5.80
- PR Agonist CV-1 Cells Efficacy (%) (human PR-B; agonist mode, percent maximal response relative to reference agonist progesterone): 74%
- PR Antagonist CV-1 Cells Efficacy (%) (human PR-B; antagonist mode, progesterone at its EC50, % maximal inhibition): 36%
- pIC50 (human PR-B; antagonist mode, progesterone at its EC50, IC50): 8.00
- pKi [3]: 8.40

SMILES: CCCCC1Oc2ccc(F)cc2-c2ccc3c(c21)C(C)=CC(C)(C)N3 (racemic) [Compound 210, (R/S)-5-Butyl-9-fluoro-1,2-dihydro-2,2,4-trimethyl-5H-chromeno[3,4-f]quinoline]
- Mean Uterine Wet Weight [4, 6]: 110 mg
- Mean Uterine Wet Weight [4, 7]: 100 mg
- Mean Uterine Wet Weight [4, 8]: 100 mg
- effect on uterine wet weight when co-administered with estrone [4]: decreased by approximately half

SMILES: CC(=O)S[C@@H]1CC2=CC(=O)CC[C@]2(C)[C@H]2CC[C@@]3(C)[C@@H](CC[C@@]34CCC(=O)O4)[C@H]12 [Spir, reference compound]
- MR Antagonist CV-1 Cells Efficacy (%) [1]: 96%
- pIC50 [2]: 5.70
- GR Antagonist CV-1 Cells Efficacy (%) [2]: 80%

SMILES: CCCO[C@@H]1[C@@H](C)c2c(ccc3c2[C@H](c2ccc(Cl)cc2)Oc2ccccc2-3)NC1(C)C (racemic) [Compound 400, (R/S-3l,4u,5u)-5-(4-Chlorophenyl)-1,2,3,4-tetrahydro-3-propyloxy-2,2,4-trimethyl-5H-chromeno[3,4-f]quinoline]
- PR Agonist CV-1 Cells Efficacy (%) (human PR-B): na (na = not active (i.e. efficacy or <20 and potency of >10,000))
- PR Antagonist CV-1 Cells Efficacy (%) (human PR-B): 68%
- pEC50 (human PR-B; [5]): < 5.00
- pIC50 (human PR-B): 6.43
- pKi ([3]; read-out: PR Binding Ki): 7.85

SMILES: CC1=CC(C)(C)Nc2ccc(-c3cccc(Cl)c3Cl)cc21 [Compound 109, 6-(2,3-Dichlorophenyl)-1,2-dihydro-2,2,4-trimethylquinoline]
- PR Agonist CV-1 Cells Efficacy (%) (human PR-B): na (na = not active (i.e. efficacy or <20 and potency of >10,000))
- PR Antagonist CV-1 Cells Efficacy (%) (human PR-B): 87%
- pEC50 (human PR-B; [5]): < 5.00
- pIC50 (human PR-B): 6.86
- pKi ([3]; read-out: PR Binding Ki): 7.64

Source: US6448405B1, “Steroid receptor modulator compounds and methods” (Ligand Pharmaceuticals Incorporated, priority 1994, dated 2002)
